Experimental findings from patent publication US11312712B2, “Azabenzimidazoles and their use as AMPA receptor modulators” (Janssen Pharmaceutica NV, priority 2015, dated 2022) are described below.

The target in this assay is GluA1o-γ8 (GRIA1o-CACNG8 fusion construct) (Homo sapiens (Human), UniProt P42261+Q8WXS5). Briefly: Calcium flux assay (FLIPR), inhibition of TARP γ8 dependent AMPA receptor activity. The class given is cell-based. The following applies: GluA1o-γ8 (GRIA1o-CACNG8 fusion) in HEK293 cells, calcium flux after 15 μM glutamate. The method in brief: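 Glutamate (15 μM) was added to a stable HEK293 line carrying the GluA1o–γ8 fusion, which had been preincubated with compound and calcium dye in HEPES buffer, pH 7.4. Normalized FLIPR fluorescence (no compound vs 10 μM CP465022) was fitted with four parameters; pIC50 is the midpoint's negative log.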
GluA1o-γ8 (GRIA1o-CACNG8 fusion construct), sequence (P42261 other isoform, or with tags, fused parts or gaps): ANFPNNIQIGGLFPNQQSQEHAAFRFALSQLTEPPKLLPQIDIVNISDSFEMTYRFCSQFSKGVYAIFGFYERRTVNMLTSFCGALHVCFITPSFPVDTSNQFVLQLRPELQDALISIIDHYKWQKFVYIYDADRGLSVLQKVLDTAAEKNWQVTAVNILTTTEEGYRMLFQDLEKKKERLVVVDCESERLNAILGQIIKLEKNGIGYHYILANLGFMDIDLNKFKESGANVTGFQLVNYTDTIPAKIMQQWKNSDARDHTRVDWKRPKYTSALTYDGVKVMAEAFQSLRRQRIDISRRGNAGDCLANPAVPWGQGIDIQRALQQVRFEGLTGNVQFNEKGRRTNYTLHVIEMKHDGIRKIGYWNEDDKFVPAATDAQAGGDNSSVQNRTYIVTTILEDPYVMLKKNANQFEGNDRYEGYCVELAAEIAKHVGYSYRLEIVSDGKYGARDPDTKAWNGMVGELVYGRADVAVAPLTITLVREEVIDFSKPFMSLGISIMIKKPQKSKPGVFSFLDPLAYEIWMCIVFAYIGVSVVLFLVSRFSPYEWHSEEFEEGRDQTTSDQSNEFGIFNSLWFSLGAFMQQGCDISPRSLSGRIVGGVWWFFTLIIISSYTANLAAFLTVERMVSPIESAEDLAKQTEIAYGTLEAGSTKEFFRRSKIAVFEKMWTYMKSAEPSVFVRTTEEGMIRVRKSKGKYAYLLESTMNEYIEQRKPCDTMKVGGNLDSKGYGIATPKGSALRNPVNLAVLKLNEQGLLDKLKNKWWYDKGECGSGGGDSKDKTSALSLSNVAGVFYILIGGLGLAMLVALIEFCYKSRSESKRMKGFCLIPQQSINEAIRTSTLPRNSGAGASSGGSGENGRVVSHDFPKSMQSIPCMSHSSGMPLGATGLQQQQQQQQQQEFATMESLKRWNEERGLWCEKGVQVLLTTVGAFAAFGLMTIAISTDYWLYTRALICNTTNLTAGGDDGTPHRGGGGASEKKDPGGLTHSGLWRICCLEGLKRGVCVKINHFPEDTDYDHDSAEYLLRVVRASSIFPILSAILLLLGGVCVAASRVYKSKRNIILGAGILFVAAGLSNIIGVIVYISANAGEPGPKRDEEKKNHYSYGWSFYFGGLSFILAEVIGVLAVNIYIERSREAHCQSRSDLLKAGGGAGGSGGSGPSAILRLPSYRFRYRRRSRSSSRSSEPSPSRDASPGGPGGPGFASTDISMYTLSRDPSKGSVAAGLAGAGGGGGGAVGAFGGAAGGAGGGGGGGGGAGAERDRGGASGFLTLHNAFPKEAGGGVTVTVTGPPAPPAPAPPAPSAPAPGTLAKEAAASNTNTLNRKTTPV
A general note: Calcium flux is commonly read through the fluorescence of an indicator in the cells.
Take `O=c1[nH]c2ccc(-n3c(-c4ccccc4)nc4ccc(C(F)(F)F)nc43)cc2s1` [Example 14, 6-[2-Phenyl-5-(trifluoromethyl)imidazo[4,5-b]pyridin-3-yl]-3H-1,3-benzothiazol-2-one]: the IC50 was 0.158 nM.

Take `FC(F)c1ccc2nc(C(F)(F)F)n(-c3ccc4[nH]ncc4c3)c2n1` [Example 238, 5-(Difluoromethyl)-3-(1H-indazol-5-yl)-2-(trifluoromethyl)imidazo[4,5-b]pyridine]: the IC50 was 0.398 nM.

Take `Cc1cc2ccc(C(F)(F)F)nc2n1-c1ccc2[nH]c(=O)sc2c1` [Example 355, 6-(2-Methyl-6-(trifluoromethyl)-1H-pyrrolo[2,3-b]pyridin-1-yl)benzo[d]thiazol-2(3H)-one]: the 50% inhibitory concentration (IC50) is 0.02 nM.

For `O=c1[nH]c2ccc(-n3c(-c4ccnc(F)c4)nc4ccc(C(F)(F)F)nc43)cc2s1` [Example 31, 6-[2-(2-Fluoro-4-pyridyl)-5-(trifluoromethyl)imidazo[4,5-b]pyridin-3-yl]-3H-1,3-benzothiazol-2-one], the IC50 is 0.251 nM.

`FC(F)(F)c1ccc2nc([C@H]3C[C@H](F)C3)n(-c3cc(Cl)c4[nH]ncc4c3)c2n1` [Example 250, 3-(7-Chloro-1H-indazol-5-yl)-2-(3-fluorocyclobutyl)-5-(trifluoromethyl)imidazo[4,5-b]pyridine]: the IC50 was 0.0316 nM.

For `FC(F)(F)c1ccc2ncn(-c3cc(Cl)c4[nH]ncc4c3)c2n1` [Example 306, 3-(7-Chloro-1H-indazol-5-yl)-5-(trifluoromethyl)imidazo[4,5-b]pyridine], the IC50 is 2.51 nM.

As for `O=C1Cc2cc(-n3c(-c4ccc(F)cc4)cc4ccc(F)nc43)ccc2N1` [Example 350, 5-[6-Fluoro-2-(4-fluorophenyl)pyrrolo[2,3-b]pyridin-1-yl]indolin-2-one], the IC50 was 0.794 nM.

Regarding `O=C1Cc2cc(-n3c(-c4ccnc(F)c4)nc4ccc(C(F)(F)F)nc43)ccc2N1` [Example 164, 5-[2-(2-Fluoro-4-pyridyl)-5-(trifluoromethyl)imidazo[4,5-b]pyridin-3-yl]indolin-2-one], the IC50 was 1.26 nM.

`COc1ccc2cc(-c3ccc(F)cc3)n(-c3ccc4[nH]ccc4c3)c2n1` [Example 343, 2-(4-Fluorophenyl)-1-(1H-indol-5-yl)-6-methoxy-pyrrolo[2,3-b]pyridine]: the IC50 was 631 nM.

Regarding `CC(C)(C)c1nc2ccc(C(F)(F)F)nc2n1-c1ccc2[nH]ncc2c1` [Example 108, 2-tert-Butyl-3-(1H-indazol-5-yl)-5-(trifluoromethyl)imidazo[4,5-b]pyridine], the IC50 was 20 nM.

Consider `O=C1Cc2cc(-n3c(C(F)(F)F)nc4ccc(C(F)(F)F)nc43)cc(Cl)c2N1` [Example 271, 5-[2,5-Bis(trifluoromethyl)imidazo[4,5-b]pyridin-3-yl]-7-chloro-indolin-2-one], for which the half-inhibitory concentration (IC50) is 0.2 nM.

Regarding `Cc1cc(-n2c(C)cc3cccnc32)cc2cn[nH]c12` [Example 375, 2-Methyl-1-(7-methyl-1H-indazol-5-yl)pyrrolo[2,3-b]pyridine], the IC50 was 10 nM.

Take `Cc1cc(-n2c(C(C)C)cc3ccc(C(F)F)nc32)cc2c1NC(=O)C2` [Example 334, 5-[6-(Difluoromethyl)-2-isopropyl-pyrrolo[2,3-b]pyridin-1-yl]-7-methyl-indolin-2-one]: the IC50 is 0.0398 nM.

On to `Cc1cc(-n2c(C(F)F)cc3ccc(C(F)(F)F)nc32)cc2c1NC(=O)C2` [Example 336, 5-[2-(Difluoromethyl)-6-(trifluoromethyl)pyrrolo[2,3-b]pyridin-1-yl]-7-methyl-indolin-2-one], for which the IC50 is 0.01 nM.

`Cc1ccc2cc(-c3ccc(F)cc3)n(-c3ccc4[nH]ccc4c3)c2n1` [Example 381, 2-(4-Fluorophenyl)-1-(1H-indol-5-yl)-6-methyl-pyrrolo[2,3-b]pyridine]: the IC50 is 5.01 nM.

For the compound `Cc1cc2ccc(C(F)(F)F)nc2n1-c1ccc2c(c1)CC(=O)N2` [Example 352, 5-[2-Methyl-6-(trifluoromethyl)pyrrolo[2,3-b]pyridin-1-yl]indolin-2-one], the IC50 is 0.501 nM.

Turning to `O=c1[nH]c2ccc(-n3c(C(F)(F)F)nc4c(N5CCOCC5)cc(C(F)(F)F)nc43)cc2s1` [Example 230, 6-[7-Morpholino-2,5-bis(trifluoromethyl)imidazo[4,5-b]pyridin-3-yl]-3H-1,3-benzothiazol-2-one], the half-inhibitory concentration (IC50) is 1 nM.

In the case of `Cc1cc(-n2c(C(F)(F)F)nc3ccc(C(F)(F)F)nc32)cc2sc(=O)[nH]c12` [Example 281, 6-[2,5-Bis(trifluoromethyl)imidazo[4,5-b]pyridin-3-yl]-4-methyl-3H-1,3-benzothiazol-2-one], the IC50 was 0.0631 nM.

In the case of `OCc1cc2ccc(C(F)(F)F)nc2n1-c1ccc2[nH]ncc2c1` [Example 330, (1-(1H-Indazol-5-yl)-6-(trifluoromethyl)-1H-pyrrolo[2,3-b]pyridin-2-yl)methanol], the IC50 is 25.1 nM.

Take `CC[C@@H](C)c1nc2ccc(C(F)(F)F)nc2n1-c1ccc2[nH]ncc2c1` [Example 167, (R)-3-(1H-Indazol-5-yl)-2-sec-butyl-5-(trifluoromethyl)imidazo[4,5-b]pyridine]: the IC50 is 2 nM.

As for `O=c1[nH]c2c(F)cc(-n3c(C(F)(F)F)nc4ccc(C(F)(F)F)nc43)cc2o1` [Example 283, 6-[2,5-Bis(trifluoromethyl)imidazo[4,5-b]pyridin-3-yl]-4-fluoro-3H-1,3-benzoxazol-2-one], the IC50 was 2.51 nM.

As for `CCOc1nc2ccc(C(F)(F)F)nc2n1-c1cc(C)c2[nH]ncc2c1` [Example 242, 2-Ethoxy-3-(7-methyl-1H-indazol-5-yl)-5-(trifluoromethyl)imidazo[4,5-b]pyridine], the IC50 is 0.398 nM.

`Fc1ccc(-c2nc3cccnc3n2-c2cnc3[nH]ncc3c2)cc1` [Example 112, 2-(4-Fluorophenyl)-3-(1H-pyrazolo[3,4-b]pyridin-5-yl)imidazo[4,5-b]pyridine]: the IC50 was 398 nM.

With `O=c1[nH]c2c(Br)cc(-n3c(C(F)(F)F)nc4ccc(C(F)(F)F)nc43)cc2o1` [Example 290, 6-[2,5-Bis(trifluoromethyl)imidazo[4,5-b]pyridin-3-yl]-4-bromo-3H-1,3-benzoxazol-2-one], the IC50 is 0.2 nM.

On to `CC(C)c1ccc2nc(C(F)(F)F)n(-c3ccc4[nH]ncc4c3)c2n1` [Example 170, 3-(1H-Indazol-5-yl)-5-isopropyl-2-(trifluoromethyl)imidazo[4,5-b]pyridine], for which the IC50 is 0.631 nM.

As to `Cc1ccc2nc([C@H]3C[C@H](F)C3)n(-c3cc(Cl)c4[nH]ncc4c3)c2n1` [Example 249, 3-(7-Chloro-1H-indazol-5-yl)-2-(3-fluorocyclobutyl)-5-methyl-imidazo[4,5-b]pyridine], the IC50 was 0.501 nM.

With `CC(C)(C)OC(=O)N1CC(c2nc3ccc(C(F)(F)F)nc3n2-c2ccc3c(c2)CC(=O)N3)C1` [Example 179, tert-Butyl 3-[3-(2-oxoindolin-5-yl)-5-(trifluoromethyl)imidazo[4,5-b]pyridin-2-yl]azetidine-1-carboxylate], the half-maximal inhibitory concentration (IC50) was 3160 nM.

On to `Clc1ccc2nc(C3CCCC3)n(-c3ccc4[nH]ncc4c3)c2n1` [Example 11, 5-Chloro-2-cyclopentyl-3-(1H-indazol-5-yl)imidazo[4,5-b]pyridine], for which the concentration for half-maximal inhibition (IC50) is 10 nM.

With `COC(=O)c1cc(-n2c(C(F)(F)F)nc3ccc(C(F)(F)F)nc32)cc2cn[nH]c12` [Example 284, Methyl 5-[2,5-bis(trifluoromethyl)imidazo[4,5-b]pyridin-3-yl]-1H-indazole-7-carboxylate], the 50% inhibitory concentration (IC50) is 126 nM.

As for `CCC(F)(F)c1nc2ccc(C(F)(F)F)nc2n1-c1cc(C)c2[nH]ncc2c1` [Example 417, 2-(1,1-Difluoropropyl)-3-(7-methyl-1H-indazol-5-yl)-5-(trifluoromethyl)-3H-imidazo[4,5-b]pyridine], the IC50 was 3.16 nM.

Turning to `Cc1cc(-c2nc3ccc(C(F)(F)F)nc3n2-c2ccc3[nH]ncc3c2)ccc1F` [Example 121, 2-(4-Fluoro-3-methyl-phenyl)-3-(1H-indazol-5-yl)-5-(trifluoromethyl)imidazo[4,5-b]pyridine], the IC50 was 0.501 nM.

In the case of `FC(F)c1nc2ccc(C(F)(F)F)nc2n1-c1cc(Br)c2[nH]ncc2c1` [Example 280, 3-(7-Bromo-1H-indazol-5-yl)-2-(difluoromethyl)-5-(trifluoromethyl)imidazo[4,5-b]pyridine], the IC50 was 0.0158 nM.

In the case of `CC(C)c1cc2cccnc2n1-c1cc(Cl)c2c(c1)CC(=O)N2` [Example 357, 7-Chloro-5-(2-isopropylpyrrolo[2,3-b]pyridin-1-yl)indolin-2-one], the IC50 was 0.0316 nM.

As for `CC(C)Cc1nc2ccc(C(F)(F)F)nc2n1-c1ccc2[nH]ncc2c1` [Example 101, 3-(1H-Indazol-5-yl)-2-isobutyl-5-(trifluoromethyl)imidazo[4,5-b]pyridine], the IC50 was 25.1 nM.

In the case of `Fc1n[nH]c2ccc(-n3c(C4CC4)nc4ccc(C(F)(F)F)nc43)cc12` [Example 197, 2-Cyclopropyl-3-(3-fluoro-1H-indazol-5-yl)-5-(trifluoromethyl)imidazo[4,5-b]pyridine], the IC50 was 6.31 nM.

In the case of `Cc1cc(-n2c(C(F)(F)F)nc3ccc(C(F)(F)F)nc32)cc2cn[nH]c12` [Example 294, 3-(7-Methyl-1H-indazol-5-yl)-2,5-bis(trifluoromethyl)imidazo[4,5-b]pyridine], the IC50 is 0.02 nM.

For `CN(C)c1ccc2nc(-c3ccccc3)n(-c3ccc4[nH]c(=O)sc4c3)c2n1` [Example 66, 6-[5-(Dimethylamino)-2-phenyl-imidazo[4,5-b]pyridin-3-yl]-3H-1,3-benzothiazol-2-one], the IC50 was 12.6 nM.

Take `Cc1ccc2ccn(-c3cc(C)c4[nH]ncc4c3)c2n1` [Example 341, 6-Methyl-1-(7-methyl-1H-indazol-5-yl)pyrrolo[2,3-b]pyridine]: the IC50 was 15.8 nM.

Usually IC50 stands for the point on the concentration scale where inhibition reaches its midpoint.
